In test [1] the target is T1, TrkB extracellular domain (ECD) (Homo sapiens, UniProt Q16620).
T1 construct: purified ECD (extracellular domain) and ICD (intracellular domain) proteins from Trk receptors
The test can be described thus: In vitro binding assay with purified TrkB ECD and 3H-ligands. As to conditions: purified ECD, 3H-ligand. As to the method:
(§1) Purified TrkA and TrkB ECD or ICD proteins were incubated with different ^3H-catecholamines at 25° C. for 30 minutes in 1 ml of binding buffer (50 mM Tris-HCl, pH 7.4, 100 mM NaCl, 5 nM ^3H-catecholamines (32000 cpm)). After the incubation, the reaction mixture was loaded on a Whatman glass-fiber filter (GF-B) (Whatman Inc.; Piscataway, N.J.). The mixture was washed with 3×5 ml washing buffer (50 mM Tris-HCl, pH 7.4). The dried filter paper was put into a small vial and subjected to liquid scintillation counter analysis. The value of the dissociate constant and the number of sites were obtained from Scatchard plots by using the equation r/[L]free =n/Kd−r/Kd, where r is the ratio of the concentration of bound ligand to the total protein concentration and n is the number of binding sites.
(§2) To determine whether catecholamines bind TrkB directly, an in vitro binding assay was conducted with purified ECD (extracellular domain) and ICD (intracellular domain) proteins from Trk receptors and ^3H-catecholamines. […] To determine whether the binding by catecholamines to TrkB receptor caused dimerization, GST-TrkB was co-transfected into HEK293 cells with HA-TrkB, followed by BDNF or monoamines treatment for 15 minutes.

The target in test [2] is T2, TrkB (Mus musculus, UniProt P15209).
T2 construct: endogenous in cells; host or cells: primary cortical neurons from BDNF-null, TrkB +/- cross, TrkC knockout and NET -/- mice
As to the kind of experiment: TrkB activation in cortical neurons cultured from BDNF-null mice. The class given is cell-based. As to conditions: 15 min. The text has this:
(§3) Both antidepressants and exercise increase hippocampal BDNF mRNA expression through enhanced 5-HT and/or NE neurotransmission (Siuciak et al., Pharmacol. Biochem. Behav., 56:131-137, 1997; Dias et al., Neuropharmacology, 45:553-563, 2003; Ivy et al., Pharmacol. Biochem. Behav., 75:81-88, 2003; Garza et al., Pharmacol. Biochem. Behav., 77:209-220, 2004). If catecholamines activated TrkB signaling indirectly by promoting BDNF generation, then scavenging BDNF with its specific antibody would be expected to diminish catecholamines-mediated activation of TrkB. Cultured cortical neurons were pretreated with BDNF-IgG for 30 minutes followed by exposure to BDNF (10 ng/ml) or catecholamines (100 nM) for 15 minutes. […] It was then determined whether catecholamines could activate TrkB in neurons cultured from mice carrying a null mutation of BDNF.

For test [3], the target named is T3, TrkB (Mus musculus, UniProt P15209, F616A).
T3 construct: from tissue; host or cells: mouse brain
The class given is in vivo. The settings on record: 1NMPP1 50 μM; for TrkB tyrosine phosphorylation/activation in mice: L-DOPA 50 mg/kg, DOPS 100 mg/kg. As to the method: The DOPS concentration was 20 mg/ml, the vitamin C concentration was 2 mg/ml, and the benserazide concentration was 5 mg/ml. The vitamin C prevents oxidation of the DOPS, and the benserazide is a peripheral inhibitor of AADC and restricts the production of NE from DOPS to the brain. The compounds were added to a tube, and 20 μl of 10 M HCl was added to each ml of DOPS solution. The appropriate amount of water was added to the tube, and then HCl was added to achieve the desired volume. For example, to make 1 mL of a DOPS solution, 20 mg DOPS, 2 mg vitamin C, and 5 mg benserazide were added to a tube, followed by 980 μL of water and 20 μL of 10 M HCl. The solution was vortexed until all DOPS was dissolved. The DOPS solution was injected subcutaneously in a volume of 50 μl/g of mouse. The appropriate amount of DOPS solution was pipetted into a clean tube, followed by the amount of 10 M NaOH required to exactly neutralize the HCl. The solution was then shaken. The amount of 10 M NaOH is the weight of the mouse in microliters. For example, for a 20 g mouse, pipet 1 ml of the DOPS solution is pipetted into a tube and 20 μL of 10 M NaOH is added. For a 30 g mouse, 1.5 mL of the DOPS solution is pipetted into a tube and 30 μl of 10 M NaOH is added. Two to four month-old TrkBF616A mice were pretreated with 1NMPP1 in drinking water (50 μM) 1 day before L-DOPA (50 mg/kg) or DOPS (100 mg/kg) intraperitoneal injection. At times of 2 hours and 5 hours after drug administration, the L-DOPA or DOPS-treated mice were sacrificed, respectively. The brain lysates were prepared and analyzed by immunoblotting against anti-phospho-TrkB Y816 and TrkA Y794 antibodies.
(§4) TrkB F616A mice were pretreated with 1NMPP1 (50 μM) before L-DOPA or DOPS administration.

For test [4], the target named is T4, TrkB (Rattus norvegicus, UniProt Q63604).
T4 construct: endogenous in cells; host or cells: primary rat cortical and hippocampal neurons
As to the kind of experiment: TrkB activation in cortical neurons after pretreatment with antibodies, receptor antagonists, transporter inhibitors or EDTA (anti-p-TrkB-Y-816 immunoblot). The class given is cell-based.
Text: as §3
To further investigate the specificity of catecholamines in inducing TrkB activation, cortical neurons were pretreated with control IgG or norepinephrine IgG, a rabbit polyclonal antibody for norepinephrine, followed by catecholamines.
(§5) It was then determined whether catecholamines could activate TrkB in neurons cultured from mice carrying a null mutation of NET.
(§6) The cell lysates were analyzed by immunoblotting with anti-p-TrkB-Y-816.
as §6
A group of primary cortical neurons were pretreated with 1 mM EDTA, and another group of primary cortical neurons were not pretreated. Both groups of primary cortical neurons were then treated with either Zn (100 μM) or a catecholamine (100 nM) for 15 minutes. The neuronal cell lysates were analyzed by immunoblotting with anti-p-TrkB-Y-816 antibody.

The target in test [5] is T5, TrkB F616A (Mus musculus, UniProt P15209, F616A).
T5 construct: endogenous in cells; host or cells: primary cortical neurons from TrkB F616A knock-in mice
The test can be described thus: TrkB phosphorylation in TrkB F616A or TrkA F592A cortical neurons pretreated with K252a or 1NMPP1. As to conditions: TrkB F616A knock-in cortical neurons. The class given is cell-based, mice. How it is done: as §4
(§7) On day 7, the primary cortical neurons were pretreated with 100 nM K252a or 1NMPP1 for 30 min, followed by 500 nM ADPP and DDAP. Cell lysates were analyzed by Western blotting.

In test [6] the target is T6, TrkB F616A (Mus musculus, UniProt P15209).
T6 construct: endogenous in cells; host or cells: primary cortical neurons from TrkB F616A knock-in mice
The description is as above. The class given is cell-based, mice. As to conditions: TrkA F592A neurons. How it is done: as §4, §7

The test system of test [7] is TrkB F616A cortical neurons. As to the kind of experiment: Glutamate-provoked apoptosis of TrkB F616A cortical neurons (TUNEL assay). The class given is cell-based, mice. Also on record: Effect of inhibitor on protective action of norepinephrine: dose or concentration left out as unconfirmed. As to the method:
Norepinephrine has neuroprotective activity against oxidative stress-induced neuronal apoptosis. To investigate whether this protective action by norepinephrine is mediated through TrkB, apoptosis of TrkB F616A cortical neurons was monitored. Primary cortical neurons were pretreated with inhibitors K252a or 1NMPP1 followed by overnight treatment with 50 mM glutamate.

The test system of the next test is mice. The test can be described thus: Forced swim test. As to conditions: TrkB F616A knockin mice. The class given is in vivo. As to the method: Accumulating evidence supports that BDNF plays an essential role in mediating antidepressants' therapeutic effects. Infusion of exogenous BDNF into hippocampus or brain stem has antidepressant-like behavioral effect. A forced swim test is broadly used for screening of potential antidepressant drugs and is widely used to measure antidepressant activity. To explore whether Compound I-11 (ADPP) and Compound I-8 (DDAP) have antidepressant effects like BDNF, forced swim tests were conducted. Adult male mice (2-3 months old, n=8) were randomly submitted, without a pre-swim, to a forced swim test of 6 minutes with immobility recorded in the last 4 minutes. Mice were injected intraperitoneally with saline, Compound I-11 (20 mg/kg), or Compound I-8 (20 mg/kg). The mice were allowed to adapt to the test room for 2 days, and the mice were placed in a clear glass cylinder with a diameter of 16 cm, half-filled with clear water at 24° C.
To assess whether the behavior responses caused by catecholamine derivatives is mediated by TrkB receptor, TrkB F616A knockin mice were utilized. The mice were subjected to saline or 1NMPP1 inhibitor pretreatment.

In a further test the test system is TrkB F616A knockin mice. The test can be described thus: Kainic acid-induced neuronal apoptosis in TrkB F616A knockin mice (immunoblotting and Caspase-3 ELISA). The settings on record: 1NMPP1 16.6 ng/kg 2 days before. The class given is in vivo. How it is done:
To determine whether Compound I-11 (ADPP) and Compound I-8 (DDAP) protect neurons from KA-induced apoptosis, TrkB F616A knockin mice were pretreated with inhibitor 1NMPP1 (16.6 ng/kg) 2 days before the experiment. Compound I-8 (DDAP) or Compound I-11 (ADPP) (50 mg/kg) was orally injected into the mice 2 hours before kainic acid (KA) administration (20 mg/kg). Brain lysates were analyzed by immunoblotting and Caspase-3 ELISA. […] The extent of the protective effect correlates with TrkB activation status by these compounds. Active Caspase-3 ELISA correlated with the immunoblotting results (FIG. 28B, right panel).

In test [8] the target is T2, TrkB. The class given is cell-based, mice. The settings on record: compared to wild-type control neurons. As to the method: as §5
Test [9] concerns the target T7, TrkB (Homo sapiens, UniProt Q16620). As to the kind of experiment: Activation of transfected TrkB in HEK293 cells with or without DAT or NET. The class given is cell-based. Details: expressed in transfected cells; host or cells: HEK293. As to conditions: NET transfected HEK293 cells.
Test [10] addresses T8, TrkB intracellular domain (ICD) (Homo sapiens, UniProt Q16620).
T8 construct: purified ECD (extracellular domain) and ICD (intracellular domain) proteins from Trk receptors
As to the kind of experiment: In vitro binding assay with purified TrkB ICD and 3H-ligands (Scatchard plot). As to conditions: for Kd: purified protein, 25° C., 30 minutes, read-out: TrkB binding constants (Scatchard plot). As to the method:
as §1, §2

In another test the target is TrkC (Homo sapiens, UniProt Q16288). The settings on record: transfected HEK293 cells. How it is done:
as §2

Another test concerns the target TrkA (Homo sapiens, UniProt P04629). The settings on record: transfected HEK293 cells. As to the method:
as §2

Test [11] concerns the target T7, TrkB. As to the kind of experiment: Tyrosine phosphorylation of TrkB in transfected HEK293 cells. The class given is cell-based. Details: expressed in transfected cells; host or cells: HEK293. As to the method: as §2

T2 sequence (P15209 32-821): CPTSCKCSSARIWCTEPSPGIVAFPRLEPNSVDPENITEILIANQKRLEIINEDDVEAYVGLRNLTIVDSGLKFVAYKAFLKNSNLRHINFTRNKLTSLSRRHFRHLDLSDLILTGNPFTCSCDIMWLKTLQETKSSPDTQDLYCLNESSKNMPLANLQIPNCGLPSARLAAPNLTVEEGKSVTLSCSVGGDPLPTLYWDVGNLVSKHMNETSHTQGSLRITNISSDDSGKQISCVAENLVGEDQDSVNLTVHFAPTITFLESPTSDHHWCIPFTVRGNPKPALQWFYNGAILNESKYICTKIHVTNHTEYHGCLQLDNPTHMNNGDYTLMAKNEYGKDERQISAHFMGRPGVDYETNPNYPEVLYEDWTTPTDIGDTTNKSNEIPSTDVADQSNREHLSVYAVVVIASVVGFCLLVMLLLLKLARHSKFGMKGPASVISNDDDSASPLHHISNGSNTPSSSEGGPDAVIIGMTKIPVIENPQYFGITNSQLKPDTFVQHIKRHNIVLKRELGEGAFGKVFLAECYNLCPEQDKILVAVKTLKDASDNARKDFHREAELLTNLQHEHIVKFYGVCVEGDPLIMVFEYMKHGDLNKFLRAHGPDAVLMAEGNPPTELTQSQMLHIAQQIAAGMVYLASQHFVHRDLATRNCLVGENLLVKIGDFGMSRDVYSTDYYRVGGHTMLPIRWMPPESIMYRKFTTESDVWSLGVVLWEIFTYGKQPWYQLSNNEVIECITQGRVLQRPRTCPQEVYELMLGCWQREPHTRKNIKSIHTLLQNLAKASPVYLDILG
T7 sequence (Q16620 32-822, species assumed): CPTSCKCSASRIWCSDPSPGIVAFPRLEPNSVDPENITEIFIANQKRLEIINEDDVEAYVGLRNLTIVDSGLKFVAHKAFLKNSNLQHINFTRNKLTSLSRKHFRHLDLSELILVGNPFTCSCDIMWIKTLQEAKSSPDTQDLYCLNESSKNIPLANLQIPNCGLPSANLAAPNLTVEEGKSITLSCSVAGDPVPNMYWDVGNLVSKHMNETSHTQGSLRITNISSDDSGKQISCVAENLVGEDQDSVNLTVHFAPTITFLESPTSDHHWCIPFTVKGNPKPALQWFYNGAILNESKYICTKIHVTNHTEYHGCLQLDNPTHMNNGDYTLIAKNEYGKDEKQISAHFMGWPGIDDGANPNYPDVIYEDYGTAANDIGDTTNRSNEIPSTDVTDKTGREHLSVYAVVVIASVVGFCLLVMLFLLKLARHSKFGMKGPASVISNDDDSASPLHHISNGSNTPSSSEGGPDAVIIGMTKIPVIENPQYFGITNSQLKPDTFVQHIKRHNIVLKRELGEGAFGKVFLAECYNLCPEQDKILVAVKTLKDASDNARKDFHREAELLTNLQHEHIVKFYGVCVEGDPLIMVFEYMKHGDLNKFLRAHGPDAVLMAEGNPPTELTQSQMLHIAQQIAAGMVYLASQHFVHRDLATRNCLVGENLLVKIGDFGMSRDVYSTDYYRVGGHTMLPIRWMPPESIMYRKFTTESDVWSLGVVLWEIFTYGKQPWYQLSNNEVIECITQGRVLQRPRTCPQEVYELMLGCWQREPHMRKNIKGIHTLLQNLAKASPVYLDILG
T4 sequence (Q63604 32-821): as the sequence (P15209 32-821) above, with T3M, S9T, A10T, V32I, R63K, S84G, M153T, L185I, S394T, S770N counted along it
T8 sequence (Q16620 455-822 limits assumed): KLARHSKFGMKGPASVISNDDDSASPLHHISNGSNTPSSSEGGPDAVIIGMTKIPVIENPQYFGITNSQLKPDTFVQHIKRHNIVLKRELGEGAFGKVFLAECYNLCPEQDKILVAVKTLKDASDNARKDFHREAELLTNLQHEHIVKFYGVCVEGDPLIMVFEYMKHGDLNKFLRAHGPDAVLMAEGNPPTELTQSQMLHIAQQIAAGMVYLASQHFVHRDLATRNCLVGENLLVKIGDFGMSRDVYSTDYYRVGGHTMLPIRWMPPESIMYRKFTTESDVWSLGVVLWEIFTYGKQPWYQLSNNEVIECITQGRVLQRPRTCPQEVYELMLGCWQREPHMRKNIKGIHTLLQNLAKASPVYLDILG
T3 sequence (P15209 32-821 F616A): as the sequence (P15209 32-821) above, with F585A counted along it
T1 sequence (Q16620 32-430 limits assumed): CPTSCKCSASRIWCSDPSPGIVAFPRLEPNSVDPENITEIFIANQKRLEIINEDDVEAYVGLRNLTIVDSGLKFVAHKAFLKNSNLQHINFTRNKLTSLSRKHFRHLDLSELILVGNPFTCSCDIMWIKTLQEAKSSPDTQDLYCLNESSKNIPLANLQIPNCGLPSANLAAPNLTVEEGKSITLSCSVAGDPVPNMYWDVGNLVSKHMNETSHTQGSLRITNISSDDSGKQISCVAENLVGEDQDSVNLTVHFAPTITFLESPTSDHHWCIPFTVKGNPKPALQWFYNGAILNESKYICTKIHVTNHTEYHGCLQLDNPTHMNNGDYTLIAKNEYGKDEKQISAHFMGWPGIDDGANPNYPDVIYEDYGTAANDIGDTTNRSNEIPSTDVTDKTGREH
Sequence of TrkA (P04629 33-796, species assumed): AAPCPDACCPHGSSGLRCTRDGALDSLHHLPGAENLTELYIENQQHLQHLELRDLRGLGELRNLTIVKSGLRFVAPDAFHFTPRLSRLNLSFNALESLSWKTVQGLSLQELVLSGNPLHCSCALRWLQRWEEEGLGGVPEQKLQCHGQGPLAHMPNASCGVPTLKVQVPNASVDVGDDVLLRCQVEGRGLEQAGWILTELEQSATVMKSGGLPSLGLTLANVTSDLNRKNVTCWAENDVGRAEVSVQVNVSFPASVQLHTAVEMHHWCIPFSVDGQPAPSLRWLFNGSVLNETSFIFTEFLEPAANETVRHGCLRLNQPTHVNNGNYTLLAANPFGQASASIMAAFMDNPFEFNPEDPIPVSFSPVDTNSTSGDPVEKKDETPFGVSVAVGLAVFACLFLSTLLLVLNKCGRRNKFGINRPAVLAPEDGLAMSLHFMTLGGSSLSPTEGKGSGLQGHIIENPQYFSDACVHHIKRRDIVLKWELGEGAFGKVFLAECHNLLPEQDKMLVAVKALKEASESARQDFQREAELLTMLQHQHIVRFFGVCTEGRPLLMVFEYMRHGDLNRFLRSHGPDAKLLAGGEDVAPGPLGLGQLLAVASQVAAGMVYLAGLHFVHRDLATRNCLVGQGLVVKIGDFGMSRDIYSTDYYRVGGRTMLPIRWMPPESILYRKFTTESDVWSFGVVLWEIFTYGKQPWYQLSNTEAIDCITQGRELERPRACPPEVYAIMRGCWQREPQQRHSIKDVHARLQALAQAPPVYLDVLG
T6 sequence (P15209 32-821 F616A): as the sequence (P15209 32-821) above, with F585A counted along it
T5 sequence (P15209 32-821 F616A): as the sequence (P15209 32-821) above, with F585A counted along it
Sequence of TrkC (Q16288 32-839, species assumed): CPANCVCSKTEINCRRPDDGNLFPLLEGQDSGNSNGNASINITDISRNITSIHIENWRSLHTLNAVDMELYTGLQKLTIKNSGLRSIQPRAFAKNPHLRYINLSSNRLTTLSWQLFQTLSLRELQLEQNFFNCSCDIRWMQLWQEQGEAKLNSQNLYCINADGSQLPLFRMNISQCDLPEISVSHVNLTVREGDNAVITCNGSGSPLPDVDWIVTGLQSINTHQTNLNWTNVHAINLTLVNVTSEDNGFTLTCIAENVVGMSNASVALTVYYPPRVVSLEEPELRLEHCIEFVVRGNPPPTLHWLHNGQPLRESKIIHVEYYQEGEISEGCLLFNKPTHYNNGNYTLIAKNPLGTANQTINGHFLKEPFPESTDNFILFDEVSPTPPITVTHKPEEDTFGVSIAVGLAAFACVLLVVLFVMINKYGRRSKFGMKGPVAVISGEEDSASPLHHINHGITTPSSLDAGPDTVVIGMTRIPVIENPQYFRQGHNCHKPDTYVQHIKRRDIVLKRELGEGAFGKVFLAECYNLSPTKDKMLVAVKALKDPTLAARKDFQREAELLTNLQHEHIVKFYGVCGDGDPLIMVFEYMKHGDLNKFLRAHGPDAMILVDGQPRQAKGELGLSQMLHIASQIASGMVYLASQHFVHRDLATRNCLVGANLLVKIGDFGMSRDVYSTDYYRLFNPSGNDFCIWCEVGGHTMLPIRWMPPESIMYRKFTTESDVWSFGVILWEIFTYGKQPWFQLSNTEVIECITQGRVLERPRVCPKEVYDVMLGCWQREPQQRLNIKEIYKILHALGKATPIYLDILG

With `O=c1cc(-c2ccccc2)oc2c(O)c(O)ccc12` [7,8-dihydroxyflavone], in [1], the “Binding to ECD of TrkB receptor” value is recorded as “selectively bound”. Moreover, the “Activation of TrkB in BDNF-null cortical neurons” value at TrkB [2] was “evident activation of TrkB”. Moreover, the “TrkB tyrosine phosphorylation/activation in mice” value on TrkB [3] was “provoked evident TrkB activation”. Moreover, the “Effect of BDNF-IgG pretreatment on phosphorylation of TrkB induced by the substance” value at TrkB [4] (BDNF-IgG 30 minutes, then BDNF 10 ng/ml or catecholamines 100 nM, 15 minutes) was “had no effect”.
In the case of `CC(C)(C)n1nc(Cc2cccc3ccccc23)c2c(N)ncnc21` [Compound 1NMPP1], on TrkB F616A [5], the “Effect of inhibitor on catecholamine-provoked TrkB phosphorylation” value is given as “selectively reduced”. The “Effect of inhibitor on catecholamine-induced TrkB activation” value at TrkB F616A [6] is “but not by 1NMPP1”. The “Effect of inhibitor on protective action of norepinephrine” value in test [7] (glutamate overnight) is reported as “abolished”. Besides, in the test with mice, the “Immobility times, 1NMPP1 versus saline treated control groups” value is reported as “No significant difference”. The “TrkB tyrosine phosphorylation/activation in mice” value on TrkB [3] is listed as “had no effect”. Further, the “Effect of 1NMPP1 pretreatment on TrkB activation by 7,8-dihydroxyflavone, L-DOPA and DOPS” value at TrkB [3] (TrkB F616A mice) is recorded as “markedly diminished TrkB activation”. For the same molecule, the “Effect of 1NMPP1 pretreatment on protective effect of Compounds I-8 and I-11” value in the test with TrkB F616A knockin mice is on record as “blocked the protective effect”.
With `CNC[C@H](O)c1ccc(O)c(O)c1` [epinephrine], the “TrkB activation in NET -/- neurons” value at TrkB [8] is listed as “completely blocked”. Further, at TrkB [9], the “Increase of stimulatory activity by overexpression of NET compared to control cells” value is “approximately 100 fold”. The “Binding to ICD of TrkB receptor” value in test [10] (purified ICD, 3H-ligand) is “strongest binding activity”. Also, the Kd in [10] came to 1.1 µM. For the same molecule, the “Tyrosine phosphorylation of TrkC” value at TrkC was “but not in TrkA or TrkC”. For the same molecule, the “Tyrosine phosphorylation of TrkA” value at TrkA is on record as “but not in TrkA”. In addition, the “Tyrosine phosphorylation of TrkB” value at TrkB [11] was “elicited tyrosine phosphorylation”.
As for `NC[C@H](O)c1ccc(O)c(O)c1` [norepinephrine], the “TrkB activation in NET -/- neurons” value on TrkB [8] is “completely blocked”. Moreover, the “Glutamate-provoked neuronal cell death” value in test [7] (50 mM glutamate overnight) was “robustly suppressed”. The “Increase of stimulatory activity by overexpression of NET compared to control cells” value at TrkB [9] was “approximately 100 fold”. Further, in test [10], the Kd came out at 98 µM. Also, the “Effect of norepinephrine IgG on the agonistic effect of the substance on TrkB activation” value on TrkB [4] (IgG 15 min, then 300 nM catecholamines 15 min) was “selectively inhibited”. Further, the “Effect of norepinephrine IgG on the agonistic effect of the substance” value on TrkB [4] (compared to control IgG) is “selectively neutralized”.

For the origin of these results see patent publication US9266817B2, “Catecholamine derivatives for obesity and neurological disorders” (EMORY UNIVERSITY, priority 2009, dated 2016).
